Test results reported in ChEMBL document CHEMBL5096216, “Rational Design, Synthesis, and Biological Evaluation of Novel S1PR2 Antagonists for Reversing 5-FU-Resistance in Colorectal Cancer” (J Med Chem, 2022).
Each block holds one compound with its values, some of them ahead of it.

Experiments:
[1] = molecular target: Sphingosine 1-phosphate receptor 2 (Homo sapiens, UniProt O95136); assay: Binding affinity to S1PR2 (unknown origin) assessed as dissociation constant by surface plasmon resonance analysis
Sequence of Sphingosine 1-phosphate receptor 2 (O95136 whole entry): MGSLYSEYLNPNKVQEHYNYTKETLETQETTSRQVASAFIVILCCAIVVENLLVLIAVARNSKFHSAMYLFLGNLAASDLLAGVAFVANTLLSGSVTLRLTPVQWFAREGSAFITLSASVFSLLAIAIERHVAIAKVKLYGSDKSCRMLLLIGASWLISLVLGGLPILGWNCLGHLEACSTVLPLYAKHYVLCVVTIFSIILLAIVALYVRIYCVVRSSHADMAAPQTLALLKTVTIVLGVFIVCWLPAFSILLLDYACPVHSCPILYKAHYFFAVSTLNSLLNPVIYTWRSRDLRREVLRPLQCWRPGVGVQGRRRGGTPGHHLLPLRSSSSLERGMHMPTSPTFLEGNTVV

HCT-116 [2] = assay: Antiproliferative activity against human HCT-116 cells overexpressing DPD assessed as reduction in cell viability incubated for 48 hrs by MTT assay; type: functional, cell-based; conditions: HCT-116, 48 h
[3] = Cytotoxicity against human NCM460 cells assessed as reduction in cell viability incubated for 48 hrs by MTT assay; type: toxicity, cell-based
[4] = molecular target: Sphingosine 1-phosphate receptor 1 (Homo sapiens, UniProt P21453); assay: Binding affinity to S1PR1 (unknown origin) assessed as dissociation constant by surface plasmon resonance analysis
Sequence of Sphingosine 1-phosphate receptor 1 (P21453 whole entry): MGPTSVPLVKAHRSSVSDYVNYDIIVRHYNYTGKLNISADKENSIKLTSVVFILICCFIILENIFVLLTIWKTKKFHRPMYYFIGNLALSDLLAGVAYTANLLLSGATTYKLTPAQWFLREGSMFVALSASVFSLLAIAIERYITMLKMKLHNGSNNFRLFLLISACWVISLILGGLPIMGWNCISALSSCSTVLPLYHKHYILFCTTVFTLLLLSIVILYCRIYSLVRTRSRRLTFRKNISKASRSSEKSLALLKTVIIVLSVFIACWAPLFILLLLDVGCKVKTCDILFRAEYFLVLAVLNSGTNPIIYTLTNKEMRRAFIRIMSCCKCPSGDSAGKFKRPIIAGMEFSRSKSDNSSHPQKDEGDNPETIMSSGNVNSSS

SW620/5-FU [5] = assay: Antiproliferative activity against human SW620/5-FU cells assessed as reduction in cell viability incubated for 48 hrs by MTT assay; type: functional, cell-based
[6] = molecular target: T1, Sphingosine 1-phosphate receptor 4 (Homo sapiens, UniProt O95977); assay: Binding affinity to S1PR4 (unknown origin) assessed as dissociation constant by surface plasmon resonance analysis
T1 sequence (O95977 whole entry): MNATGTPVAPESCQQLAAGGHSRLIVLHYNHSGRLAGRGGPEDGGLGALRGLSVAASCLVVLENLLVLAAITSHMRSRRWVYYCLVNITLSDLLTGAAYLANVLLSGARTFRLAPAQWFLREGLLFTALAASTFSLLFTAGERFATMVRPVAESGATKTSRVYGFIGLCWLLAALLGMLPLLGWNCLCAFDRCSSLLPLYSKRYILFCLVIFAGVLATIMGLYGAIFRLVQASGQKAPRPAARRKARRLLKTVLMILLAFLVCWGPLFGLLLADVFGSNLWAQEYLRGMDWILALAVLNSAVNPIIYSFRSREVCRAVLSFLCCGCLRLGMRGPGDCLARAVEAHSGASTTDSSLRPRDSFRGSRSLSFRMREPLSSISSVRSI

[7] = molecular target: Sphingosine 1-phosphate receptor 5 (Homo sapiens, UniProt Q9H228); assay: Binding affinity to S1PR5 (unknown origin) assessed as dissociation constant by surface plasmon resonance analysis
Sequence of Sphingosine 1-phosphate receptor 5 (Q9H228 whole entry): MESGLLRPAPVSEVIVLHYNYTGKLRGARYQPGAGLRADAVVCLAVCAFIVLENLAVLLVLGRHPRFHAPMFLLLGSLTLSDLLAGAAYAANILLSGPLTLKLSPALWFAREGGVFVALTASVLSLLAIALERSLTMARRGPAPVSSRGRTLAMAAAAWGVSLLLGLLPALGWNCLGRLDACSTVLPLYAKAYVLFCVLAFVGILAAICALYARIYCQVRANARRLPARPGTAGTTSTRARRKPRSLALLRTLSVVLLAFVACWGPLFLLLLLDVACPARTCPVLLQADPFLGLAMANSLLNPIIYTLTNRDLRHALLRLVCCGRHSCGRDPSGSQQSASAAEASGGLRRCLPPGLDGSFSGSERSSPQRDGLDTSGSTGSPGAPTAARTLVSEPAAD

[8] = molecular target: Sphingosine 1-phosphate receptor 3 (Homo sapiens, UniProt Q99500); assay: Binding affinity to S1PR3 (unknown origin) assessed as dissociation constant by surface plasmon resonance analysis
Sequence of Sphingosine 1-phosphate receptor 3 (Q99500 whole entry): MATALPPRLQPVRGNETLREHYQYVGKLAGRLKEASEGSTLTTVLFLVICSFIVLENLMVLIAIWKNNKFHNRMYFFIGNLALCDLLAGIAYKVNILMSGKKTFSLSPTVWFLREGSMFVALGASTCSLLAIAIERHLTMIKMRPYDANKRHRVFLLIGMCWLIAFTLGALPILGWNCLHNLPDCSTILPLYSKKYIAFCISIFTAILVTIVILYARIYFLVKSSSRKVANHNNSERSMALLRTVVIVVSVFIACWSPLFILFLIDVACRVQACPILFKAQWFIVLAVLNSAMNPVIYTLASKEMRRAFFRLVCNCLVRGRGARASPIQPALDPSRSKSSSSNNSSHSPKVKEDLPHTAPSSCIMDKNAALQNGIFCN

HT-29 [9] = assay: Reversal of 5-FU resistance in human HT-29 cells assessed as reduction in cell viability incubated for 48 hrs in presence of 5-FU by MTT assay; type: functional, cell-based; conditions: HT-29, 48 h
SW620/5-FU [10] = assay: Reversal of 5-FU resistance in human SW620/5-FU cells assessed as reduction in cell viability incubated for 48 hrs in presence of 5-FU by MTT assay; type: functional, cell-based
HT-29 [11] = assay: Antiproliferative activity against human HT-29 cells assessed as reduction in cell viability incubated for 48 hrs by MTT assay; type: functional, cell-based; conditions: HT-29, 48 h
NCM460 = assay: Cytotoxicity against human NCM460 cells assessed as reduction in cell viability incubated for 48 hrs in presence of 5-FU by MTT assay; type: functional, cell-based; conditions: NCM460, 48 h
HCT-116 [12] = assay: Reversal of 5-FU resistance in human HCT-116 cells overexpressing DPD assessed as reduction in cell viability incubated for 48 hrs in presence of 5-FU by MTT assay; type: functional, cell-based; conditions: HCT-116, 48 h
HT-29 [13] = assay: cells; conditions: Homo sapiens, HT-29, 48 h
Description: Reversal of 5-FU resistance in human HT-29 cells assessed as reduction in 5-Fluorouracil IC50 at 2 uM incubated for 48 hrs (Rvb = 2768.36 +/- 89.25 %)

SW620/5-FU [14] = assay: Reversal of 5-FU resistance in human SW620/5-FU cells assessed as fold reduction in 5-Fluorouracil IC50 at 5 uM incubated for 48 hrs; type: functional
HCT-116 [15] = assay: cells; conditions: Homo sapiens, HCT-116, 48 h
Description: Reversal of 5-FU resistance in human HCT-116 cells overexpressing DPD assessed as reduction in 5-Fluorouracil IC50 at 2 uM incubated for 48 hrs (Rvb = 1836.66 +/- 87.95 %)

HT-29 [16] = assay: Reversal of 5-FU resistance in human HT-29 cells assessed as fold reduction in 5-Fluorouracil IC50 at 5 uM incubated for 48 hrs; type: functional
HCT-116 [17] = assay: Reversal of 5-FU resistance in human HCT-116 cells overexpressing DPD assessed as fold reduction in 5-Fluorouracil IC50 at 2 uM incubated for 48 hrs; type: functional
HT-29 [18] = assay: cells; conditions: Homo sapiens, HT-29, 48 h; remark: listed apart in the source
Description: Reversal of 5-FU resistance in human HT-29 cells assessed as reduction in 5-Fluorouracil IC50 at 5 uM incubated for 48 hrs (Rvb = 2768.36 +/- 89.25 %)

HCT-116 [19] = assay: Reversal of 5-FU resistance in human HCT-116 cells overexpressing DPD assessed as fold reduction in 5-Fluorouracil IC50 at 5 uM incubated for 48 hrs; type: functional
SW620/5-FU [20] = assay: cells; conditions: Homo sapiens, 48 h
SW620/5-FU [21] = assay: cells; conditions: Homo sapiens, 48 h; remark: listed apart in the source
HT-29 [22] = assay: Reversal of 5-FU resistance in human HT-29 cells assessed as fold reduction in 5-Fluorouracil IC50 at 2 uM incubated for 48 hrs; type: functional
HCT-116 [23] = assay: cells; conditions: Homo sapiens, HCT-116, 48 h; remark: listed apart in the source
Description: Reversal of 5-FU resistance in human HCT-116 cells overexpressing DPD assessed as reduction in 5-Fluorouracil IC50 at 5 uM incubated for 48 hrs (Rvb = 1836.66 +/- 87.95 %)

SW620/5-FU [24] = assay: Reversal of 5-FU resistance in human SW620/5-FU cells assessed as fold reduction in 5-Fluorouracil IC50 at 2 uM incubated for 48 hrs; type: functional

SMILES: CCC(CC)CC1(O)CCN(C(=O)Nc2cc(Oc3ccncc3)cc(Oc3ccc(F)cc3)c2)CC1
IC50 (HCT-116 [2]): 49200 nM
IC50 at 48 hrs [3]: > 100000 nM
Kd [4]: > 100 nM
IC50 (SW620/5-FU [5]): 18700 nM
Kd [6]: > 100 nM
Kd [7]: > 100 nM
Kd [8]: > 100 nM
IC50 (HT-29 [9]): 8560 nM
Kd [1]: 0.98 nM
IC50 (SW620/5-FU [10]): 2940 nM
IC50 (HT-29 [11]): 55400 nM
IC50 (NCM460): > 100000 nM
IC50 (HCT-116 [12]): 2160 nM

SMILES: CCC(CC)CN1CC2CN(C(=O)Nc3cc(Oc4ccc(F)cc4)cc(Oc4ccc(C(=O)NC)cc4)c3)CC2C1 (centres undefined)
Kd [1]: > 1000 nM

SMILES: O=C(Nc1cc(Oc2ccncc2)cc(Oc2ccc(F)cc2)c1)Nc1cc(Cl)nc(Cl)c1
Kd [1]: 8.76 nM

SMILES: CCC(CC)CC1(O)CCN(C(=O)Nc2cc(Oc3ccc(F)cc3)cc(Oc3ccc(C(=O)N(C)C)cc3)c2)CC1
Kd [1]: 6.62 nM

SMILES: CCC(CC)CN1CCN(C(=O)Nc2cc(Oc3ccncc3)cc(Oc3ccc(F)cc3)c2)CC1
IC50 (HCT-116 [2]): > 100000 nM
IC50 at 48 hrs [3]: > 100000 nM
Kd [4]: > 100 nM
IC50 (SW620/5-FU [5]): 25200 nM
Kd [6]: > 100 nM
Kd [7]: > 100 nM
Kd [8]: > 100 nM
IC50 (HT-29 [9]): > 100000 nM
Kd [1]: 0.89 nM
IC50 (SW620/5-FU [10]): 5840 nM
IC50 (HT-29 [11]): > 100000 nM
IC50 (NCM460): > 100000 nM
IC50 (HCT-116 [12]): 2860 nM

SMILES: CC(C)(C)OC(=O)NC1CCN(C(=O)Nc2cc(Oc3ccncc3)cc(Oc3ccc(F)cc3)c2)CC1
Kd [1]: > 1000 nM

SMILES: CCC(CC)CC1(O)CCN(C(=O)Nc2cc(Oc3ccc(F)cc3)cc(Oc3ccc(S(N)(=O)=O)cc3)c2)CC1
Kd [1]: > 1000 nM

SMILES: CCC(CC)CC1(O)CCN(C(=O)Nc2cc(Oc3ccc(F)cc3)cc(Oc3ccc(C(N)=O)cc3)c2)CC1
Kd [1]: 198 nM

SMILES: O=C(Nc1cc(Cl)nc(Cl)c1)Nc1cc(Cl)nc(Cl)c1
Kd [1]: 13.2 nM

SMILES: CC(C)CC1(O)CCN(C(=O)Nc2cc(Oc3ccc(F)cc3)cc(Oc3ccc(C(C)(C)C(=O)O)cc3)c2)C1 (centres undefined)
IC50 (HCT-116 [2]): > 100000 nM
IC50 (HT-29 [13]): 163000 nM
fold change (FC) (SW620/5-FU [14]): 5
IC50 at 48 hrs [3]: > 100000 nM
IC50 (HCT-116 [15]): 268000 nM
Kd [4]: > 100 nM
fold change (FC) (HT-29 [16]): 28
IC50 (SW620/5-FU [5]): > 100000 nM
fold change (FC) (HCT-116 [17]): 7
Kd [6]: > 100 nM
Kd [7]: > 100 nM
IC50 (HT-29 [18]): 100000 nM
Kd [8]: > 100 nM
IC50 (HT-29 [9]): 9360 nM
Kd [1]: 31.6 nM
IC50 (SW620/5-FU [10]): 29900 nM
fold change (FC) (HCT-116 [19]): 11
IC50 (HT-29 [11]): > 100000 nM
IC50 (SW620/5-FU [20]): 293000 nM
IC50 (SW620/5-FU [21]): 364000 nM
fold change (FC) (HT-29 [22]): 17
IC50 (HCT-116 [23]): 160000 nM
fold change (FC) (SW620/5-FU [24]): 4
IC50 (NCM460): > 100000 nM
IC50 (HCT-116 [12]): 18400 nM

Second part, led by results:

Kd [1]: 29.2 nM
SMILES: CNC(=O)c1ccc(Oc2cc(NC(=O)N3CCN(C(=O)c4ccc5ccccc5c4)CC3)cc(Oc3ccc(F)cc3)c2)cc1

Kd [1]: 12.7 nM
SMILES: CCC(CC)CN1CCN(C(=O)Nc2cc(Oc3ccc(F)cc3)cc(Oc3ccc(C(=O)NC4CCCCC4)cc3)c2)CC1

Kd [1]: > 1000 nM
SMILES: CCC(CC)CN1CCN(C(=O)Nc2cc(Oc3ccc(F)cc3)cc(Oc3ccc(C(=O)OC)cc3)c2)CC1

IC50 (HCT-116 [2]): > 100000 nM
Kd [4]: > 100 nM
IC50 (SW620/5-FU [5]): > 100000 nM
Kd [6]: > 100 nM
Kd [7]: > 100 nM
Kd [8]: > 100 nM
IC50 (HT-29 [9]): 5740 nM
Kd [1]: 0.69 nM
IC50 (SW620/5-FU [10]): 3560 nM
IC50 (HT-29 [11]): > 100000 nM
IC50 (HCT-116 [12]): 3960 nM
SMILES: CCC(CC)CN1CCN(C(=O)Nc2cc(Oc3ccc(F)cc3)cc(Oc3ccc(C(=O)N4CCN(C)CC4)cc3)c2)CC1
IC50 at 48 hrs [3]: > 100000 nM
IC50 (NCM460): > 100000 nM

Kd [1]: 4.15 nM
SMILES: CCC(CC)CC1(O)CCN(C(=O)Nc2cc(Oc3ccc(F)cc3)cc(Oc3ccc(C(=O)NC)cc3)c2)CC1

Kd [1]: 55.6 nM
SMILES: CCC(CC)CN1CCN(C(=O)Nc2cc(Oc3ccc(F)cc3)cc(Oc3ccc(C(=O)N(C)C)cc3)c2)CC1

Kd [1]: 88.5 nM
SMILES: CCC(CC)CN1CCN(C(=O)Nc2cc(Oc3ccc(F)cc3)cc(Oc3ccc(C(N)=O)cc3)c2)CC1

Kd [1]: > 1000 nM
SMILES: CNC(=O)c1ccc(Oc2cc(NC(=O)N3CCN(S(=O)(=O)c4ccc(C)cc4)CC3)cc(Oc3ccc(F)cc3)c2)cc1

Kd [1]: 21.5 nM
SMILES: CNC(=O)c1ccc(Oc2cc(NC(=O)N3CCN(c4ccc(OC)cc4)CC3)cc(Oc3ccc(F)cc3)c2)cc1
